The results in this text go back to article PMC11074326, “A Toxoplasma gondii O-glycosyltransferase that modulates bradyzoite cyst wall rigidity is distinct from host homologues” (Nature Communications, 2024).

The assay addresses T1, TxgGalNAc-T3 (Toxoplasma gondii, UniProt A0A125YMZ8).
T1 construct: gene TGME49_318730; luminal region (catalytic and lectin domains), aa 74-635; secreted from Pichia pastoris SMD1168; His tag removed with TEV protease
Nature of the assay: X-ray crystal structure. As to conditions: crystals with Mn2+, UDP-GalNAc-F and glycopeptide (CST1.4 or Muc5AC series), pH 9.5; active site, UDP coordinates Mn2+A; added as UDP-GalNAc-F, only UDP modelled. The format is binding.

T1 sequence (A0A125YMZ8 entry or part of it): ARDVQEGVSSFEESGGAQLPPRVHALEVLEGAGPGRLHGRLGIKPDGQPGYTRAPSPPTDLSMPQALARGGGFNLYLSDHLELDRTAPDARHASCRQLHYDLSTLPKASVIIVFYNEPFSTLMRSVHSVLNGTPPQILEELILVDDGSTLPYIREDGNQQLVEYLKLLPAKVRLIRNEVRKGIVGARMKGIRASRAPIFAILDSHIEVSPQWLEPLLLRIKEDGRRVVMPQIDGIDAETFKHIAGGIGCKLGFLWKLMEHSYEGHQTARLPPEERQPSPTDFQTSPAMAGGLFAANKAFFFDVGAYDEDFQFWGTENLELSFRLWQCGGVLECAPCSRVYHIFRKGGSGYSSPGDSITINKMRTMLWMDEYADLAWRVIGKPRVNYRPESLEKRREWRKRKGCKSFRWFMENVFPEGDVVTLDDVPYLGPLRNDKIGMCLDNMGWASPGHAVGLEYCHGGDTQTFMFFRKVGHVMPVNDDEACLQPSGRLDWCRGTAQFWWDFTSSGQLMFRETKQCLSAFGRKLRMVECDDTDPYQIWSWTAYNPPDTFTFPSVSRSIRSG

Consider `O=c1ccn([C@@H]2O[C@H](COP(=O)(O)OP(=O)(O)O)[C@@H](O)[C@H]2O)c(=O)[nH]1` [UDP], for which the X-ray crystal structure entry was “We modeled UDP into the active site but did not include GalNAc-F”.
